Results: paper PMC10993414, “Water Quality Monitoring with the Multiplexed Assay MitoOxTox for Mitochondrial Toxicity, Oxidative Stress Response, and Cytotoxicity in AREc32 Cells” (Environmental Science & Technology, 2024)
Where two headings read alike, the source gives them in different places.

Columns and labels:
[1] = tested on: AREc32 cells; test: Cytotoxicity (cell confluency) with IncuCyte S3 live cell imaging, MitoOxTox
[2] = cited from earlier work
[3] = tested on: AREc32 cells; test: Cytotoxicity with ImageXpress high-content imaging, MitoOxTox
[4] = tested on: Nrf2-mediated oxidative stress response pathway (ARE) in AREc32 cells; test: cells; settings: Arec32, 24 h, read-out: Oxidative stress response ECIR1.5 (M)
[5] = tested on: mitochondrial membrane potential (MMP) in AREc32 cells; test: Disruption of mitochondrial membrane potential (m-MPI red/green ratio), MitoOxTox; settings: for SRcytotoxicity: specificity ratio of MMP effect: IC10 (ImageXpress)/EC10 (eq 4)
[6] = tested on: AREc32 cells; settings: for Cytotoxicity Incucyte IC10: human
[7] = tested on: AREc32 cells
[8] = tested on: mitochondrial membrane potential (MMP) in AREc32 cells; settings: for SRcytotoxicity: human
[9] = 10% reduction in cell viability, AREc32, 24 h exposure
[10] = logarithm of IC10, AREc32, 24 h exposure, Corning plates
[11] = 10% reduction of MMP, AREc32, 24 h exposure
[12] = logarithm of EC10, AREc32, 24 h exposure

N#CC(C#N)=NNc1ccc(OC(F)(F)F)cc1 [Carbonyl cyanide 4-(trifluoromethoxy)phenylhydrazone]
Cytotoxicity Incucyte IC10 [1, 9]: 0.824 µM | log Kow [L/L] ([2]; experimental, ref PhysPropNCCT): 3.68 L/L | Cytotoxicity ImageExpress IC10 [3, 9]: 1.75 µM | Cytotoxicity ImageExpress log(IC10 (M)) [3, 10]: -5.76 M | EC (induction ratio 1.5) [4]: > 6.32e-05 M | MMP inhibition EC10 [5, 11]: 76.8 nM | MMP inhibition log(EC10 (M)) [5, 12]: -7.11 M | SRcytotoxicity [5]: 22.8

Cc1nn(C)c(Oc2ccccc2)c1C=NOCc1ccc(C(=O)OC(C)(C)C)cc1 [Fenpyroximate]
MMP inhibition EC10 [5, 11]: 0.69 nM | MMP inhibition log(EC10 (M)) [5, 12]: -9.16 M

CC1(C)CNC(=NN=C(/C=C/c2ccc(C(F)(F)F)cc2)/C=C/c2ccc(C(F)(F)F)cc2)NC1 [Hydramethylnon]
Cytotoxicity Incucyte IC10 [1, 9]: 0.878 µM | Cytotoxicity ImageExpress IC10 [3, 9]: 1.11 µM | Cytotoxicity ImageExpress log(IC10 (M)) [3, 10]: -5.96 M | EC (induction ratio 1.5) [4]: > 4.04e-05 M | MMP inhibition EC10 [5, 11]: 4290 nM | MMP inhibition log(EC10 (M)) [5, 12]: -5.37 M

N#CC(C#N)=NNc1cccc(Cl)c1 [Carbonyl cyanide 3-chlorophenyl-hydrazone]
Cytotoxicity Incucyte IC10 [1, 9]: 1.28 µM | log Kow [L/L] ([2]; experimental, ref PhysPropNCCT): 3.38 L/L | Cytotoxicity ImageExpress IC10 [3, 9]: 2.31 µM | Cytotoxicity ImageExpress log(IC10 (M)) [3, 10]: -5.64 M | EC (induction ratio 1.5) [4]: > 0.000355 M | MMP inhibition EC10 [5, 11]: 247 nM | MMP inhibition log(EC10 (M)) [5, 12]: -6.61 M | SRcytotoxicity [5]: 9.4

Cc1ccc(-c2c(Cl)nc(C#N)n2S(=O)(=O)N(C)C)cc1 [Cyazofamid]
Cytotoxicity Incucyte log(IC10 (M)) [6]: no cytotoxicity | Cytotoxicity Incucyte IC10 ([6]; 24 h): > 54.1 µM | EC (induction ratio 1.5) [4]: > 5.41e-05 M | Cytotoxicity ImageExpress log(IC10 (M)) [7]: no cytotoxicity | Cytotoxicity ImageExpress IC10 ([7]; human, 24 h): > 54.1 µM | MMP inhibition EC10 [5, 11]: 36700 nM | MMP inhibition log(EC10 (M)) [5, 12]: -4.44 M

COC(=O)N(OC)c1ccccc1COc1ccn(-c2ccc(Cl)cc2)n1 [Pyraclostrobin]
Cytotoxicity Incucyte IC10 [1, 9]: 82.4 µM | log Kow [L/L] ([2]; experimental, ref PhysPropNCCT): 3.99 L/L | Cytotoxicity ImageExpress IC10 [3, 9]: 61.4 µM | Cytotoxicity ImageExpress log(IC10 (M)) [3, 10]: -4.21 M | EC (induction ratio 1.5) [4]: > 0.000103 M | SRcytotoxicity [8]: 295.0 | MMP inhibition EC10 [5, 11]: 208 nM | MMP inhibition log(EC10 (M)) [5, 12]: -6.68 M

CO/N=C(/C1=NOCCO1)c1ccccc1Oc1ncnc(Oc2ccccc2Cl)c1F [Fluoxastrobin]
Cytotoxicity Incucyte IC10 [1, 9]: 52.1 µM | Cytotoxicity ImageExpress IC10 [3, 9]: > 153 µM | Cytotoxicity ImageExpress log(IC10 (M)) [3, 10]: no cytotoxicity | EC (induction ratio 1.5) [4]: > 0.000153 M | MMP inhibition EC10 [5, 11]: 6050 nM | MMP inhibition log(EC10 (M)) [5, 12]: -5.22 M

Cc1nc(C(F)(F)F)c(C(=O)Nc2c(Br)cc(OC(F)(F)F)cc2Br)s1 [Thifluzamide]
Cytotoxicity Incucyte IC10 [1, 9]: 11.3 µM | Cytotoxicity ImageExpress IC10 [3, 9]: 23.4 µM | Cytotoxicity ImageExpress log(IC10 (M)) [3, 10]: -4.63 M | EC (induction ratio 1.5) [4]: > 3.16e-05 M | MMP inhibition EC10 [5, 11]: 2920 nM | MMP inhibition log(EC10 (M)) [5, 12]: -5.53 M | SRcytotoxicity [5]: 8.0

COc1cc2c(cc1OC)[C@@H]1C(=O)c3ccc4c(c3O[C@@H]1CO2)C=CC(C)(C)O4 [Deguelin]
Cytotoxicity Incucyte IC10 [1, 9]: 17.7 µM | Cytotoxicity ImageExpress IC10 [3, 9]: 28.8 µM | Cytotoxicity ImageExpress log(IC10 (M)) [3, 10]: -4.54 M | EC (induction ratio 1.5) [4]: > 4.08e-05 M | SRcytotoxicity [8]: 2215 | MMP inhibition EC10 [5, 11]: 13 nM | MMP inhibition log(EC10 (M)) [5, 12]: -7.89 M

CSC1=N[C@@](C)(c2ccccc2)C(=O)N1Nc1ccccc1 [Fenamidone]
Cytotoxicity Incucyte IC10 ([6]; 24 h): 118 µM | EC (induction ratio 1.5) [4]: > 0.000239 M | Cytotoxicity ImageExpress IC10 ([7]; human, 24 h): 125 µM | Cytotoxicity ImageExpress log(IC10 (M)) ([7]; human, 24 h): -3.90 M | SRcytotoxicity ([8]; 24 h): 9.5 | MMP inhibition EC10 [5, 11]: 13100 nM | MMP inhibition log(EC10 (M)) [5, 12]: -4.88 M

CCCCCc1ccc(O)cc1 [4-Pentylphenol]
Cytotoxicity Incucyte IC10 [1, 9]: 57.1 µM | log Kow [L/L] ([2]; ref Vaes et al. 1997b): 4.24 L/L | Cytotoxicity ImageExpress IC10 [3, 9]: 87.6 µM | Cytotoxicity ImageExpress log(IC10 (M)) [3, 10]: -4.06 M | EC (induction ratio 1.5) [4]: > 0.000385 M | MMP inhibition EC10 [5, 11]: 6160 nM | MMP inhibition log(EC10 (M)) [5, 12]: -5.21 M | SRcytotoxicity [5]: 14.2

CCCCCC[C@H]1C(=O)O[C@H](C)[C@H](NC(=O)c2cccc(NC=O)c2O)C(=O)O[C@@H](C)[C@@H]1OC(=O)CC(C)C [Antimycin A]
Cytotoxicity Incucyte IC10 [1, 9]: 35.9 µM | Cytotoxicity ImageExpress IC10 [3, 9]: 43.4 µM | Cytotoxicity ImageExpress log(IC10 (M)) [3, 10]: -4.36 M | EC (induction ratio 1.5) [4]: > 0.000129 M | MMP inhibition EC10 [5, 11]: 0.755 nM | MMP inhibition log(EC10 (M)) [5, 12]: -9.12 M

CCOCCc1ccc(OCCN=c2[nH]cnc(CC)c2Cl)c(C)c1C [Pyrimidifen]
Cytotoxicity Incucyte IC10 [1, 9]: 55.3 µM | Cytotoxicity ImageExpress IC10 [3, 9]: 56.1 µM | Cytotoxicity ImageExpress log(IC10 (M)) [3, 10]: -4.25 M | EC (induction ratio 1.5) [4]: > 0.000136 M | MMP inhibition EC10 [5, 11]: 2.71 nM | MMP inhibition log(EC10 (M)) [5, 12]: -8.57 M | SRcytotoxicity [5]: 20693

CCc1nn(C)c(C(=O)NCc2ccc(C(C)(C)C)cc2)c1Cl [Tebufenpyrad]
Cytotoxicity Incucyte IC10 [1, 9]: 157 µM | log Kow [L/L] ([2]; experimental, ref PhysPropNCCT): 4.61 L/L | Cytotoxicity ImageExpress IC10 [3, 9]: 192 µM | Cytotoxicity ImageExpress log(IC10 (M)) [3, 10]: -3.72 M | EC (induction ratio 1.5) [4]: > 0.000214 M | SRcytotoxicity [8]: 33496 | MMP inhibition EC10 [5, 11]: 5.73 nM | MMP inhibition log(EC10 (M)) [5, 12]: -8.24 M

Oc1c(Cl)cc(Cl)c(Cl)c1Cc1c(O)c(Cl)cc(Cl)c1Cl [Hexachlorophene]
Cytotoxicity Incucyte IC10 [6]: 5.46 µM | EC (induction ratio 1.5) [4]: > 9.31e-05 M | Cytotoxicity ImageExpress IC10 ([7]; human): 10.7 µM | Cytotoxicity ImageExpress log(IC10 (M)) ([7]; human): -4.97 M | SRcytotoxicity [8]: 38.6 | MMP inhibition EC10 [5]: 276 nM | MMP inhibition log(EC10 (M)) [5]: -6.56 M

CON=C(C(=O)OC)c1ccccc1CON=C(C)c1cccc(C(F)(F)F)c1 [Trifloxystrobin]
log Kow [L/L] ([2]; experimental, ref PhysPropNCCT): 4.50 L/L | Cytotoxicity Incucyte log(IC10 (M)) [6]: no cytotoxicity | Cytotoxicity Incucyte IC10 ([6]; 24 h): > 123 µM | EC (induction ratio 1.5) [4]: > 0.000123 M | Cytotoxicity ImageExpress log(IC10 (M)) [7]: no cytotoxicity | Cytotoxicity ImageExpress IC10 ([7]; human, 24 h): > 123 µM | MMP inhibition EC10 [5, 11]: 4110 nM | MMP inhibition log(EC10 (M)) [5, 12]: -5.39 M

CC(C)(C)c1ccc(CSc2cnn(C(C)(C)C)c(=O)c2Cl)cc1 [Pyridaben]
log Kow [L/L] ([2]; experimental, ref PhysPropNCCT): 6.37 L/L | Cytotoxicity Incucyte IC10 ([6]; 24 h): 51.4 µM | EC (induction ratio 1.5) [4]: > 0.000161 M | Cytotoxicity ImageExpress log(IC10 (M)) [7]: no cytotoxicity | Cytotoxicity ImageExpress IC10 ([7]; human, 24 h): > 161 µM | MMP inhibition EC10 [5, 11]: 2.73 nM | MMP inhibition log(EC10 (M)) [5, 12]: -8.56 M

COc1ccc2cc3[n+](cc2c1OC)CCc1cc2c(cc1-3)OCO2 [Berberine]
Cytotoxicity Incucyte IC10 [1, 9]: 63.5 µM | Cytotoxicity ImageExpress IC10 [3, 9]: 72.4 µM | Cytotoxicity ImageExpress log(IC10 (M)) [3, 10]: -4.14 M | EC (induction ratio 1.5) [4]: > 0.000135 M | MMP inhibition EC10 [5, 11]: 13.5 nM | MMP inhibition log(EC10 (M)) [5, 12]: -7.87 M | SRcytotoxicity [5]: 5365

Cc1ccccc1C(=O)Nc1cccc(OC(C)C)c1 [Mepronil]
log Kow [L/L] ([2]; experimental, ref PhysPropNCCT): 3.66 L/L | Cytotoxicity Incucyte IC10 ([6]; 24 h): 58.7 µM | EC (induction ratio 1.5) [4]: > 0.000153 M | Cytotoxicity ImageExpress IC10 ([7]; human, 24 h): 72.9 µM | Cytotoxicity ImageExpress log(IC10 (M)) ([7]; human, 24 h): -4.14 M | MMP inhibition EC10 [5, 11]: 31200 nM | MMP inhibition log(EC10 (M)) [5, 12]: -4.51 M

Cc1cc(O)ccc1Cl [4-Chloro-3-methylphenol]
Cytotoxicity Incucyte IC10 [1]: 111 µM | Cytotoxicity ImageExpress IC10 [3]: 161 µM | Cytotoxicity ImageExpress log(IC10 (M)) [3]: -3.79 M | MMP inhibition EC10 [5]: 13500 nM | MMP inhibition log(EC10 (M)) [5]: -4.87 M

CCCCOCCO [2-Butoxyethanol]
log Kow [L/L] ([2]; ref Vaes et al. 1997b): 0.83 L/L | MMP inhibition log(EC10 (M)) [8, 12]: -1.97 M | EC10 ([5]; MMP, AREc32, 24 h): 10.7 mM
